These results are taken from patent US8980916B2, “Factor IXa inhibitors” (Merck Sharp & Dohme Corp., priority 2011, dated 2015).

The target of the assay is human Factor IXa (Homo sapiens (Human), UniProt P00740). The assay can be described thus: Factor IXa enzyme assay (SPECTROFLUOR FIXa fluorogenic substrate). The class given is biochemical. To be noted: human Factor IXa 2.0 μg/ml, SPECTROFLUOR FIXa 100 μM, 60 minutes at room temperature, pH 8.0. As to the method:
Inhibitory activity against Factor IXa was tested using the substrate SPECTROFLUOR FIXa (American Diagnostica Inc.; 500 West Avenue, Stamford, Conn. 06902 USA; Pr. No. 299F) and human Factor IXa (American Diagnostica Inc.; Pr. No. 449b). Test substances dissolved in buffer A (50 mM α,α,α-tris(hydroxymethyl)methylamine (Tris), 100 mM NaCl, 5 mM CaCl2, 15% (v/v) ethylene glycol, pH 8.0) were mixed with Factor IXa (2.0 μg/ml final concentration). The enzyme reaction was started by addition of SPECTROFLUOR FIXa (100 μM final concentration). After incubation for 60 minutes at room temperature, the reaction was stopped by the addition of 20% (v/v) acetic acid solution, and then fluorescence value measured (Excitation Wavelength: 355 nm, Emission Wavelength; 460 nm) in a microtiter plate reader (ARVO 1420 Multilabel Counter; PerkinElmer).
IC50 was calculated from a dilution series of the test substance with the aid of the software, Symix Assay Explorer (Symyx Technologies, Inc.).

human Factor IXa, sequence (P00740 227-461): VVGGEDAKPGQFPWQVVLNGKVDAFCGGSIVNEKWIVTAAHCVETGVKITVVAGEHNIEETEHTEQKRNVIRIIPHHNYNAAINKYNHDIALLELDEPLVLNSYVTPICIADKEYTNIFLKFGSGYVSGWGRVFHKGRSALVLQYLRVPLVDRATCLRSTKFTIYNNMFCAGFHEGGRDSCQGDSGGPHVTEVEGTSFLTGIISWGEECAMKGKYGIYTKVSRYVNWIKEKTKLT
human Factor IXa, sequence (P00740 47-191 partner): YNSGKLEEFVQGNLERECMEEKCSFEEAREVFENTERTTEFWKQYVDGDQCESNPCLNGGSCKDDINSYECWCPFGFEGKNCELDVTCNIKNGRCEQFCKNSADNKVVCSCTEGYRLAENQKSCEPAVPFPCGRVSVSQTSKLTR

As for `CC(C)(C)c1ccc(-n2cccc(C(O)C(=O)Nc3ccc4c(N)noc4c3)c2=O)cc1` (racemic) [Example 5, (±)-N-(3-aminobenzo[d]isoxazol-6-yl)-2-(1-(4-tert-butylphenyl)-2-oxo-1,2-dihydropyridin-3-yl)-2-hydroxyacetamide], the IC50 came to 1 µM.
Next, `CC(C)(C)c1ccc(-n2cccc(C(O)C(=O)Nc3ccc4c(N)nccc4c3)c2=O)cc1` (racemic) [Example 6, (±)-N-(1-aminoisoquinolin-6-yl)-2-(1-(4-tert-butylphenyl)-2-oxo-1,2-dihydropyridin-3-yl)-2-hydroxyacetamide]: 0.054 µM.
